Data: ChEMBL document CHEMBL1146819, “Synthesis and SAR of 2-arylbenzoxazoles, benzothiazoles and benzimidazoles as inhibitors of lysophosphatidic acid acyltransferase-beta” (Bioorg Med Chem Lett, 2004)
Calls of active or inactive are those of the source.

How the values were obtained:
[1] = target: T1, 1-acyl-sn-glycerol-3-phosphate acyltransferase beta (Homo sapiens, UniProt O15120); assay: Inhibitory concentration against human lysophosphatidic acid acyltransferase-beta (LPAAT-beta) expressed in Sf9 insect cell membranes
T1 sequence (O15120 whole entry): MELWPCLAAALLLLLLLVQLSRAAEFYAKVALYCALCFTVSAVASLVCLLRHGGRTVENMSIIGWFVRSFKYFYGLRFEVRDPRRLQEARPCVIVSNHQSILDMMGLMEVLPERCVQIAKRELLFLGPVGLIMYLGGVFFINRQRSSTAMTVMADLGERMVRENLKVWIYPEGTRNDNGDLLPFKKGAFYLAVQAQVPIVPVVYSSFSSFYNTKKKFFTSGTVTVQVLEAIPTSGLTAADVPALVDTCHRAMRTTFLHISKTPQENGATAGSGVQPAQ

[2] = target: T2, 1-acyl-sn-glycerol-3-phosphate acyltransferase alpha (Homo sapiens) (UniProt Q99943); assay: Inhibitory activity against human lysophosphatidic acid acyltransferase-alpha (LPAAT-alpha) expressed in Sf9 insect cell membranes at <20 uM; Not active
T2 sequence (whole entry): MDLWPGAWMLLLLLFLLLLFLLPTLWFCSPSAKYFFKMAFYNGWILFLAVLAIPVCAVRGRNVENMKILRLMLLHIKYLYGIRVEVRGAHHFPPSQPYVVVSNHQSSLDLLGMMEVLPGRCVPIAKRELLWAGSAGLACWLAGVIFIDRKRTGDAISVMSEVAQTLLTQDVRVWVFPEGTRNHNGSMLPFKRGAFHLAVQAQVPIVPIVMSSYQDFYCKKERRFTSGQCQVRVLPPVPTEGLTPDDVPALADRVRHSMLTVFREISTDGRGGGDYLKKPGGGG

DU-145 = assay: In vitro inhibitory concentration of compound against proliferation of DU145 prostate carcinoma cells; format: functional, cell-based; settings: Homo sapiens
MCF7 [3] = assay: In vitro inhibitory concentration of compound against proliferation of MCF-7 breast carcinoma cells; format: functional, cell-based; settings: Homo sapiens
MCF7 [4] = assay: In vitro inhibitory concentration of compound against proliferation of MCF-7 breast carcinoma cells; Range is 30-40 uM; format: functional, cell-based; settings: Homo sapiens

Compound | IC50 [1] | Activity [2] | IC50 (DU-145) | IC50 (MCF7 [3]) | IC50 (MCF7 [4])
Cc1ccc2oc(-c3cc(NCCCC#N)ccc3Cl)nc2c1 | > 5000 nM |  |  |  | 
CC#CCOC(=O)Nc1ccc(Cl)c(-c2nc3cc(Cl)ccc3o2)c1 | 75 nM | inactive |  |  | 
Cc1ccc(NC(=O)CC#N)cc1-c1nc2ccccc2s1 | 70 nM | inactive |  |  | 
COC(=O)Nc1ccc(OC)c(-c2nc3cc(C)ccc3o2)c1 | 64000 nM | inactive |  |  | 
Cc1ccc2oc(-c3cc(NC=O)ccc3Cl)nc2c1 | > 5000 nM | inactive |  |  | 
C#CCCC(=O)Nc1ccc(Cl)c(-c2nc3cc(Cl)ccc3o2)c1 | 100 nM | inactive |  |  | 
COC(=O)Nc1ccc(Cl)c(-c2nc3cc(O)ccc3o2)c1 | > 20000 nM | inactive |  |  | 
C#CCOC(=O)Nc1ccc(Cl)c(-c2nc3cc(Cl)ccc3o2)c1 |  | inactive | 50000 nM | 15000 nM | 
COC(=O)Nc1ccc(Cl)c(-c2nc3cc(C)ccc3o2)c1 | 1000 nM | inactive |  |  | 
CCC(=O)Nc1ccc(Cl)c(-c2nc3cc(C)ccc3o2)c1 | 1500 nM | inactive | 40000 nM | 40000 nM | 
CC#CC(=O)Nc1ccc(Cl)c(-c2nc3cc(Cl)ccc3o2)c1 | > 20000 nM | inactive |  |  | 
COC(=O)Nc1cccc(-c2nc3cc(C)ccc3o2)c1 | > 64000 nM | inactive |  |  | 
C#CCOC(=O)Nc1ccc(Cl)c(-c2nc3c(C)cccc3o2)c1 |  | inactive |  |  | 
C#CCOC(=O)Nc1ccc(Cl)c(-c2nc3cc(C(F)(F)F)ccc3s2)c1 |  | inactive | 20000 nM |  | 40000 nM
COC(=O)Nc1ccc(Cl)c(-c2nc3c(C)cccc3s2)c1 | 9000 nM | inactive |  |  | 
C#CCCOC(=O)Nc1ccc(Cl)c(-c2nc3cc(Cl)ccc3o2)c1 | 75 nM | inactive |  |  | 
COC(=O)Nc1ccc(Cl)c(-c2nc3ccc(C)cc3n2C)c1 | > 20000 nM | inactive |  |  | 
COC(=O)Nc1ccc(Cl)c(-c2nc3cc(C(=O)O)ccc3o2)c1 | > 20000 nM | inactive |  |  | 
C#CCCC(=O)Nc1ccc(Cl)c(-c2nc3cc(C)ccc3o2)c1 | 500 nM | inactive |  |  | 
[N-]=[N+]=NCC(=O)Nc1ccc(Cl)c(-c2nc3cc(Cl)ccc3o2)c1 | 170 nM | inactive |  |  | 
CN(C)CC(=O)Nc1ccc(Cl)c(-c2nc3cc(Cl)ccc3o2)c1 | > 5000 nM | inactive |  |  | 
COC(=O)Nc1ccc(Cl)c(-c2nc3cc(C(F)(F)F)ccc3o2)c1 | 800 nM | inactive |  |  | 

Compound | IC50 [1] | Activity [2] | IC50 (DU-145) | IC50 (MCF7 [3]) | IC50 (MCF7 [4])
CC(=O)Nc1ccc(Cl)c(-c2nc3cc(C)ccc3o2)c1 | 2500 nM | inactive |  |  | 
C#CCOC(=O)Nc1ccc(Cl)c(-c2nc3cc(C)ccc3o2)c1 |  | inactive |  |  | 
N#CCC(=O)Nc1ccc(Cl)c(-c2nc3cc(Cl)ccc3s2)c1 |  | inactive |  |  | 
COC(=O)Nc1ccc(Cl)c(-c2nc3ccc(C)cc3s2)c1 | > 64000 nM | inactive |  |  | 
COC(=O)Nc1ccc(F)c(-c2nc3cc(C)ccc3o2)c1 | > 64000 nM | inactive |  |  | 
COC(=O)Nc1ccc(C)c(-c2nc3cc(Cl)ccc3o2)c1 | 550 nM | inactive |  |  | 
Cc1ccc2oc(-c3cc(NC(=O)CO)ccc3Cl)nc2c1 | 31000 nM | inactive |  |  | 
C#CCOC(=O)Nc1ccc(C)c(-c2nc3cc(Cl)ccc3o2)c1 | 100 nM | inactive |  |  | 
CCCOC(=O)Nc1ccc(Cl)c(-c2nc3cc(C)ccc3o2)c1 | 12000 nM | inactive |  |  | 
COC(=O)Nc1ccc(Cl)c(-c2nc3cc(-c4ccccc4)ccc3o2)c1 | 64000 nM | inactive |  |  | 
N#CCC(=O)Nc1ccc(Cl)c(-c2nc3cc(C(F)(F)F)ccc3s2)c1 | 50 nM | inactive |  |  | 
COC(=O)Nc1ccc(Cl)c(-c2nc3ccc(C)cc3o2)c1 | 400 nM | inactive |  |  | 
CCOC(=O)Nc1ccc(Cl)c(-c2nc3cc(C)ccc3o2)c1 | 1500 nM | inactive |  |  | 
Cc1ccc2oc(-c3cc(NC(=O)c4ccccc4)ccc3Cl)nc2c1 | 40000 nM | inactive |  |  | 
Cc1cc(-c2nc3ccccc3s2)ccc1N | > 40000 nM |  |  |  | 
COC(=O)Nc1ccc(Cl)c(-c2nc3cc(C)ccc3n2C)c1 | 11000 nM | inactive |  |  | 
N#CCC(=O)Nc1ccc(Cl)c(-c2nc3cc(Cl)ccc3o2)c1 | 27 nM | inactive |  |  | 
C#CCOC(=O)Nc1ccc(C)c(-c2nc3cc(Cl)ccc3s2)c1 | 15 nM | inactive |  |  | 
COC(=O)Nc1ccc(Cl)c(-c2nc3ccccc3o2)c1 |  | inactive |  |  | 
Cn1c(-c2cc(NC(=O)CC#N)ccc2Cl)nc2cc(Cl)ccc21 | 300 nM | inactive |  |  | 
Cc1ccc2oc(-c3cc(NC(=O)OC(C)C)ccc3Cl)nc2c1 | 16000 nM | inactive |  |  | 
Cc1ccc2oc(-c3cc(NC(=O)CC#N)ccc3Cl)nc2c1 | 100 nM | inactive |  |  | 

Compound | IC50 [1] | Activity [2] | IC50 (DU-145) | IC50 (MCF7 [3]) | IC50 (MCF7 [4])
COC(=O)Nc1ccc(Cl)c(-c2nc3cc(C(F)(F)F)ccc3s2)c1 |  | inactive |  |  | 
COC(=O)Nc1ccc(C)c(-c2nc3cc(C)ccc3o2)c1 |  | inactive |  |  | 
C#CCNC(=O)Nc1ccc(Cl)c(-c2nc3cc(Cl)ccc3o2)c1 | 100 nM | inactive |  |  | 
CCCC(=O)Nc1ccc(Cl)c(-c2nc3cc(C)ccc3o2)c1 | 2500 nM | inactive |  |  | 
COC(=O)Nc1ccc(Cl)c(-c2nc3c(C)cccc3o2)c1 | 500 nM | inactive |  |  | 
C#CCOC(=O)Nc1ccc(Cl)c(-c2nc3cc(C(F)(F)F)ccc3n2C)c1 | 120 nM | inactive |  |  | 
CC#CC(=O)Nc1ccc(Cl)c(-c2nc3cc(C)ccc3o2)c1 | > 20000 nM | inactive |  |  | 
COC(=O)Nc1ccc(Cl)c(-c2nc3cc(Cl)ccc3s2)c1 |  | inactive |  |  | 
C=CCOC(=O)Nc1ccc(Cl)c(-c2nc3cc(C)ccc3o2)c1 | 1400 nM | inactive |  |  | 
C#CCOC(=O)Nc1ccc(Cl)c(-c2nc3ccccc3o2)c1 |  | inactive | 50000 nM | 20000 nM | 
C#CCOC(=O)Nc1ccc(Cl)c(-c2nc3cc(C(F)(F)F)ccc3[nH]2)c1 | 5200 nM | inactive |  |  | 
C#CCOC(=O)Nc1ccc(Cl)c(-c2nc3cc(Cl)ccc3s2)c1 |  | inactive | > 50000 nM | > 50000 nM | 
CNCC(=O)Nc1ccc(Cl)c(-c2nc3cc(Cl)ccc3o2)c1 | > 5000 nM | inactive |  |  | 
C#CCOC(=O)Nc1ccc(Cl)c(-c2nc3cc(C(F)(F)F)ccc3o2)c1 |  | inactive |  |  | 
C#CCOC(=O)Nc1ccc(Cl)c(-c2nc3cc(O)ccc3o2)c1 | 2000 nM | inactive |  |  | 
CNC(=O)Nc1ccc(Cl)c(-c2nc3cc(Cl)ccc3o2)c1 | 950 nM | inactive |  |  | 
COC(=O)Nc1ccc(Cl)c(-c2nc3cc(Cl)ccc3o2)c1 |  | inactive |  |  | 
Cc1ccc2oc(-c3cc(NC(=O)CN=[N+]=[N-])ccc3Cl)nc2c1 | 600 nM | inactive |  |  | 
C#CCOC(=O)Nc1ccc(Cl)c(-c2nc3cc(Cl)ccc3n2C)c1 |  | inactive |  |  | 
COC(=O)Nc1ccc(Cl)c(-c2nc3cc(Cl)ccc3n2C)c1 | 650 nM | inactive |  |  | 
